# Source: patent publication US11298409B2, “Mutant huntingtin-mediated protein dysfunction” (UNIVERSITY OF PITTSBURGH—OF THE COMMONWEALTH SYSTEM OF …, priority 2014, dated 2022)
# Read-outs that look alike come from different tables or passages of the source. No end group written: not given here.
# Key:
# [1] = system: pOTC import into mitochondria isolated from striatal cells; test: pOTC import assay with mitochondria from striatal cells plus uncoupler; format: biochemical; settings: added to mitochondria before starting the import reaction
# Experimental: The assay was performed as previously described (52,53).
# [2] = system: mitochondrial protein import in primary cortical neurons; settings: 10 μM, 2 h
# Experimental: Neurons obtained from each embryo were cultured separately on poly-1-lysine-coated plates and subjected to in vitro pOTC import assay on DIV 7-8.
# Pre-ornithine transcarbamylase (pOTC) cDNA in pGEM-3Zf(+)-pOTC plasmid, which was kindly provided by M. Yano (Kumamoto University, Kumamoto, Japan), was transcribed and translated in vitro using the TNT-coupled reticulocyte lysate system (Promega) in the presence of 1-[^35S]methionine (PerkinElmer). Following translation, [35 S]methionine-labeled pOTC was incubated with isolated mitochondria at 25° C. for the indicated times, and mitochondria containing imported OTC were collected by centrifugation (9,000 g, 10 min) and subjected to SDS-PAGE. The radioactive polypeptides on the gel were visualized by fluorography with Amplify (GE Healthcare) followed by exposure to X-ray film. Cleaved mature OTC (mOTC), which represents the completion of import into the mitochondrial matrix and migrates faster than pOTC on SDS-PAGE, was quantified by ImageJ (NIH). The data are presented as the percentage of mOTC compared to input (total [^35S]pOTC amount added to each reaction) and scaled to imported mOTC in control mitochondria after the maximum reaction time (set equal to 1) unless otherwise specified. […]
# [3] = system: WT primary cortical neurons; settings: 10 μM
# Experimental: Primary cortical neurons were prepared from R6/2 and WT littermate embryos at E15.5. Neurons prepared from each embryo were plated into separate dishes. […] Primary cortical neurons were incubated with the indicated concentrations of H2O2 for 1 day, and neuronal death was analyzed by lactate dehydrogenase (LDH) assay (11c). Data (11b, 11c) are presented as mean+s.e.m.
# [4] = system: primary cortical and striatal neurons; test: cell death assay by nuclear morphology in Tom40 RNAi-transfected primary neurons; format: cell-based, mouse; settings: 20 μM
# Experimental: Mouse primary cortical and striatal neurons from embryonic day (E) 15.5 Swiss Webster mouse fetuses were cultured in plating medium (minimal essential medium (MEM), 10% FBS, 0.45% glucose, 1 mM sodium pyruvate, 2 mM glutamine and penicillin/streptomycin) for 3 h and then maintained in serum-free Neurobasal medium containing B27 supplement (Life Technologies), 0.5 mM glutamine and 25 μM glutamate for the first 3 d in a humidified incubator (37° C. in 5% CO2). Half of the medium was replaced with Neurobasal medium with B27 and 0.5 mM glutamine every 3 d. […] Viral copy number was adjusted for transduction of neurons on the basis of titer measured using the Lenti-X qRT-PCR titration kit (Clontech). […]
# Primary neurons infected with Tim23 shRNA or control luciferase shRNA lentivirus at DIV 5 were fixed 7 d after infection. Nuclei were stained with Hoechst 33342, and neurons were assessed in a blinded fashion for cell death by scoring condensed or fragmented nuclei. Primary neurons plated in a 24-well plate were transfected with Tom40 shRNA or control pBSU6 plasmid along with β-gal expression plasmid at DIV 5, fixed 3 d after transfection and subjected to indirect immunofluorescence with anti-β-gal antibody and nuclear DAPI staining. β-gal-positive neurons were assessed for cell death as described above. […]
# [5] = system: TIM23 complex (Tim17a, Tim23 and Tim50); test: GST pull-down with mitochondria isolated from ST14A striatal cells and mouse brain; format: binding, rat
# Experimental: Extracts were spun at 14,000 r.p.m. at 4° C., and clarified supernatants were incubated with glutathione 4B Sepharose beads (GE Healthcare) at 4° C. overnight. The glutathione beads were then washed extensively with ice-cold TNE buffer, and bound proteins were subjected to SDS-PAGE followed by immunoblotting analysis. For the samples subjected to mass spectrometry, glutathione bead-bound proteins from equal amounts (600 μg) of mitochondria were further washed with high stringency RIPA buffer following TNE buffer wash to decrease nonspecific interaction. Proteins were then eluted from the glutathione beads in SDS sample buffer, separated by SDS-PAGE and stained with Coomassie. Proteins in the gel were digested with trypsin and analyzed by mass spectrometry (LC-MS/MS) at the Taplin Biological Mass Spectrometry Facility (Harvard Medical School, Boston, Mass.).
# We therefore performed GST pull-down assays using purified GST-Httex1-97Q, GST-Httex1-97Q-ΔN17, which lacks the N17 sequence, and GST-N17 with mitochondria isolated from ST14A striatal cells and mouse brain.
# Tim23 = molecular target: T1, Tim23 (Mus musculus, UniProt Q9WTQ8); test: GST pull down assay with purified Tim proteins; format: binding
# T1 construct: GST (N, cleaved yes); made in house; host or cells: E. coli BL21star (DE3)
# T1 sequence (Q9WTQ8 1-209): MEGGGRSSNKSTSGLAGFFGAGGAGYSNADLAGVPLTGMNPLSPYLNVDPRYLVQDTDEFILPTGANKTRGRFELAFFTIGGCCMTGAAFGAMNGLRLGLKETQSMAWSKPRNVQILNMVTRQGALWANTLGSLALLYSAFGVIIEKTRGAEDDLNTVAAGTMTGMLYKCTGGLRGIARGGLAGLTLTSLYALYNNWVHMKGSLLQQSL
# Experimental: Mouse Timm23, Timm50, Timm17A, and Timm17B cDNA were subcloned into the GST-Httex1 vector and transformed into BL21star (DE3) cells (Life Technologies). GST-Tim23, GST-Tim50, GST-Tim17A, and GST-Tim17B fusion proteins were purified from the cells by using glutathione 4B Sepharose beads (GE Healthcare) to bind the fusion proteins. To purify Tim proteins from GST, the GST fusion protein-bead complexes were digested with thrombin protease (GE Healthcare) at 25° C. overnight, and eluted with PBS. The eluted proteins were concentrated in PBS using AmiconUltra-10K centrifugal filters (Millipore).
# GST-Htt exon 1 proteins and GST removed Tim proteins were incubated with glutathione 4B Sepharose beads (GE Healthcare) at 4° C. overnight. The glutathione beads were then washed extensively with ice-cold PBS, and bound proteins were subjected to SDS-PAGE followed by immunoblotting analysis.
compound,measurement,setting,value
"O=[N+]([O-])c1ccc(O)c([N+](=O)[O-])c1 [2,4-dinitrophenol]",effect on pOTC import,[1],blocks import
OO [hydrogen peroxide],effect on mitochondrial protein import vs vehicle,[2]; R6/2 neurons,significantly decreased import
same,effect on mitochondrial protein import vs vehicle,[2]; WT neurons,little to no effect
same,effect on survival,[3],does not affect
CC(C)[C@H](NC(=O)c1ccc2ccccc2n1)C(=O)N[C@@H](CC(=O)O)C(=O)COc1c(F)cccc1F [qVD-OPh],effect on Tom40 RNAi-induced neuronal death,[4],partially but significantly inhibited
"GST-N17: GST tagged N terminal 17 amino acids of Huntingtin protein (MATLEKLMKAFESLKSF; also: GST tagged, side not given here)","interaction with Tim17a, Tim23 and Tim50 in pull-down",[5],"little, if any, interaction"
same,binding to Tim23 in pull down,Tim23,did not bind
